Results: the supplement of paper PMC10290057
Where a name gives a salt, the structure may show the parent alone.

What was measured:
HCT116 [1] = experiment: efficacy (fitted maximal change in viability relative to DMSO control); higher = less cytotoxic (negative = loss of viability); settings: 48 h
HCT116 [2] = experiment: AC50 cell viability (CellTiter-Glo); higher = less potent; settings: 48 h
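Throughout, for AC50 cell viability (CellTiter-Glo): HCT116 colorectal carcinoma cells screened at five concentrations per compound, luminescent viability scaled between DMSO wells and empty wells on each plate, curves fitted per compound.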
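Throughout, for efficacy (fitted maximal change in viability relative to DMSO control): Luminescence-based viability readout, five doses per compound, normalized against on-plate DMSO and empty-well controls, followed by dose-response curve fitting for every drug.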

## NC(=O)c1cccc2cn(-c3ccc([C@@H]4CCCNC4)cc3)nc12 [Niraparib]
HCT116 [1]
  efficacy: -92%
HCT116 [2]
  AC50 cell viability: 18.6 µM

## CCC[C@H](N[C@H]1CCc2cc(F)cc(F)c2C1)C(=O)Nc1cn(C(C)(C)CNCC(C)(C)C)cn1 [Nirogacestat]
HCT116 [1]
  efficacy: -90.3%
HCT116 [2]
  AC50 cell viability: 20.9 µM

## CC(=O)Oc1ccccc1C(=O)Nc1ncc([N+](=O)[O-])s1 [Nitazoxanide]
HCT116 [1]
  efficacy: -80.3%
HCT116 [2]
  AC50 cell viability: 23.5 µM

## O=[N+]([O-])c1ccc(O)c2ncccc12 [Nitroxoline]
HCT116 [1]
  efficacy: -96.2%
HCT116 [2]
  AC50 cell viability: 10.5 µM

## COC(=O)Nc1nc2cc(C(=O)c3cccs3)ccc2[nH]1 [Nocodazole]
HCT116 [1]
  efficacy: -65.7%
HCT116 [2]
  AC50 cell viability: 0.166 µM

## COc1ccc2c(c1OC)C(=O)O[C@H]2[C@H]1c2c(cc3c(c2OC)OCO3)CCN1C [Noscapine]
HCT116 [1]
  efficacy: -55.1%
HCT116 [2]
  AC50 cell viability: 14.8 µM

## COC1=CC=C(C(=C1)OC(C)C)C/2=N/[C@@H]([C@@H](N2C(=O)N3CCNC(=O)C3)C4=CC=C(Cl)C=C4)C5=CC=C(Cl)C=C5 [Nutlin-3]
HCT116 [1]
  efficacy: -98.3%
HCT116 [2]
  AC50 cell viability: 23.5 µM

## NC1CCC(N[C@@H]2C[C@H]2c2ccccc2)CC1 (stereo partly specified) [ORY-1001]
HCT116 [1]
  efficacy: -36%
HCT116 [2]
  AC50 cell viability: 16.6 µM

## COc1cccc2cc(-c3nc([C@H]4CC[C@H](C(=O)O)CC4)n4ncnc(N)c34)[nH]c12 [OSI-027]
HCT116 [1]
  efficacy: -94.5%
HCT116 [2]
  AC50 cell viability: 11.8 µM

## C#Cc1cccc(Nc2ncnc3cc(OCCOC)c(OCCO)cc23)c1 [OSI-420]
HCT116 [1]
  efficacy: -76.6%
HCT116 [2]
  AC50 cell viability: 6.61 µM

## NC(=O)c1c(OCc2c(F)cc(Br)cc2F)nsc1NC(=O)NCCCCN1CCCC1 [OSI-632]
HCT116 [1]
  efficacy: -100%
HCT116 [2]
  AC50 cell viability: 23.5 µM

## O=C(Nc1ccc(OC(F)(F)F)cc1)c1sccc1NCc1ccnc2ccccc12 [OSI-930]
HCT116 [1]
  efficacy: -77.4%
HCT116 [2]
  AC50 cell viability: 10.5 µM

## CNC(=O)CCc1cc(-c2ccc(-c3ccc(C(F)(F)F)cc3)cc2)n(-c2ccc(N3CCNCC3)cc2)n1 [OSU-T315]
HCT116 [1]
  efficacy: -90.4%
HCT116 [2]
  AC50 cell viability: 6.61 µM

## Cc1cc(O)c(-c2ccc([C@@H](C)CN(C)C)cc2)c2c1[nH]c(=O)c1sccc12 [OTS964]
HCT116 [1]
  efficacy: -63.1%
HCT116 [2]
  AC50 cell viability: 0.0295 µM

## CC(=O)c1cnc2ccc(-c3cc(Cl)c(O)c(Cl)c3)nc2c1N[C@H]1CC[C@H](CN(C)C)CC1 [OTS-167]
HCT116 [1]
  efficacy: -70.5%
HCT116 [2]
  AC50 cell viability: 0.0539 µM

## Nc1nccn2c1c(-c1cc3cccc(Cl)c3[nH]1)nc2[C@H]1CC[C@H](C(=O)O)CC1 [OXA-01]
HCT116 [1]
  efficacy: -65.8%
HCT116 [2]
  AC50 cell viability: 9.34 µM

## COC1=CC(c2cc3ccccc3[nH]2)=N/C1=C/c1[nH]c(C)cc1C [Obatoclax]
HCT116 [1]
  efficacy: -90%
HCT116 [2]
  AC50 cell viability: 1.66 µM

## CC[C@H]1/C=C\C=C/C[C@@H](C)[C@H](O)[C@@](C)(O)C(=O)[C@@H](C)[C@H](O)[C@@H](C)C(=O)[C@@H](C)[C@H](O)[C@@H](C)/C=C/C(=O)O[C@@H]2[C@H](C)[C@H](CC1)O[C@]1(CC[C@H](C)[C@H](C[C@@H](C)O)O1)[C@H]2C [Oligomycin A]
HCT116 [1]
  efficacy: -112%
HCT116 [2]
  AC50 cell viability: 16.6 µM

## C=CC(=O)Nc1cccc(Oc2nc(Nc3ccc(N4CCN(C)CC4)cc3)nc3ccsc23)c1 [Olmutinib]
HCT116 [1]
  efficacy: -98.2%
HCT116 [2]
  AC50 cell viability: 8.33 µM

## COC(=O)C[C@](O)(CCCC(C)(C)O)C(=O)O[C@@H]1C(OC)=CC23CCCN2CCc2cc4c(cc2[C@H]13)OCO4 (stereo partly specified) [Omacetaxine mepesuccinate]
HCT116 [1]
  efficacy: -68.3%
HCT116 [2]
  AC50 cell viability: 0.0235 µM

## CC1(C)CC[C@@]2(CC[C@]3(C)[C@@H]([C@@H]2C1)C(=O)\C=C\4[C@@]3(C)CC[C@H]5C(C)(C)C(=O)\C(=C/[C@]45C)C#N)NC(=O)C(C)(F)F [Omaveloxolone]
HCT116 [1]
  efficacy: -91.5%
HCT116 [2]
  AC50 cell viability: 5.9 µM

## COc1ccc(/C=C\c2cc(OC)c(OC)c(OC)c2)cc1NC(=O)[C@H](N)CO [Ombrabulin]
HCT116 [1]
  efficacy: -62.9%
HCT116 [2]
  AC50 cell viability: 0.148 µM

## CC(C)c1cc(C(=O)N2Cc3ccc(CN4CCN(C)CC4)cc3C2)c(O)cc1O [Onalespib]
HCT116 [1]
  efficacy: -54.3%
HCT116 [2]
  AC50 cell viability: 0.118 µM

## COC[C@H](NC(=O)c1cnc(C)s1)C(=O)N[C@@H](COC)C(=O)N[C@@H](Cc1ccccc1)C(=O)[C@@]1(C)CO1 [Oprozomib]
HCT116 [1]
  efficacy: -88.1%
HCT116 [2]
  AC50 cell viability: 0.0742 µM

## Cc1[nH]c(/C=C2\C(=O)Nc3ccccc32)c(C)c1CCC(=O)O [Orantinib]
HCT116 [1]
  efficacy: -49.3%
HCT116 [2]
  AC50 cell viability: 23.5 µM

## C=C1C(=O)[C@@]23C(CC[C@@H]1[C@H]2O)[C@@]12CO[C@]3(O)[C@@H](O)[C@@H]1C(C)(C)CC[C@@H]2O (stereo partly specified) [Oridonin]
HCT116 [1]
  efficacy: -98.8%
HCT116 [2]
  AC50 cell viability: 13.2 µM

## C=CC(=O)Nc1cc(Nc2nccc(-c3cn(C)c4ccccc34)n2)c(OC)cc1N(C)CCN(C)C [Osimertinib mesylate]
HCT116 [1]
  efficacy: -103%
HCT116 [2]
  AC50 cell viability: 8.33 µM

## C[C@](O)(COc1ccc(C#N)cc1)C(=O)Nc1ccc(C#N)c(C(F)(F)F)c1 [Ostarine]
HCT116 [1]
  efficacy: -91.5%
HCT116 [2]
  AC50 cell viability: 20.9 µM

## CCNC1(C(N)=O)CCN(c2ncnc3c2nc(-c2ccccc2Cl)n3-c2ccc(Cl)cc2)CC1 [Otenabant]
HCT116 [1]
  efficacy: -97.3%
HCT116 [2]
  AC50 cell viability: 23.5 µM

## O=C1[O][Pt]2([NH]C3CCCCC3[NH]2)[O]C1=O (stereo unspecified) [Oxaliplatin]
HCT116 [1]
  efficacy: -42.2%
HCT116 [2]
  AC50 cell viability: 9.11 µM

## O=C(/C=C/C#Cc1cccc(N[S+](=O)([O-])c2ccccc2)c1)NO [Oxamflatin]
HCT116 [1]
  efficacy: -99.5%
HCT116 [2]
  AC50 cell viability: 1.02 µM

## COC(=O)Nc1nc2cc([S+]([O-])c3ccccc3)ccc2[nH]1 (stereo unspecified) [Oxfendazole]
HCT116 [1]
  efficacy: -47.9%
HCT116 [2]
  AC50 cell viability: 6.61 µM

## CCCOc1ccc2[nH]c(NC(=O)OC)nc2c1 [Oxibendazole]
HCT116 [1]
  efficacy: -64.9%
HCT116 [2]
  AC50 cell viability: 0.295 µM

## O=C(c1ccc(Nc2nc(C3CC3)cn3c(-c4cn[nH]c4)cnc23)c(F)c1)N1CCOCC1 [P21d hydrochloride]
HCT116 [1]
  efficacy: -86.2%
HCT116 [2]
  AC50 cell viability: 14.8 µM

## C=CCc1cccc(/C=N/NC(=O)CN2CCN(Cc3ccccc3)CC2)c1O [PAC-1]
HCT116 [1]
  efficacy: -94.4%
HCT116 [2]
  AC50 cell viability: 7.42 µM

## COc1cccc2c1CCCC2CCCN1CCN(C2CCCCC2)CC1 (stereo unspecified) [PB-28]
HCT116 [1]
  efficacy: -91.3%
HCT116 [2]
  AC50 cell viability: 16.6 µM

## COc1ccc(-c2c(-c3ccc(O)cc3O)n[nH]c2C)cc1 [PDHK RIKEN]
HCT116 [1]
  efficacy: -47.1%
HCT116 [2]
  AC50 cell viability: 20.9 µM

## Cc1cc(C[S+](=O)([O-])c2ccccc2)cc(OCc2ccc(CN3CCC[C@@H]3CO)cc2)c1 [PF-543]
HCT116 [1]
  efficacy: -92.7%
HCT116 [2]
  AC50 cell viability: 16.6 µM

## O=C(Nc1cccnc1)N1CCC(Cc2cccc(Oc3ccc(C(F)(F)F)cn3)c2)CC1 [PF-3845]
HCT116 [1]
  efficacy: -82.1%
HCT116 [2]
  AC50 cell viability: 13.2 µM

## CCCOc1ccc(CCc2nc3cc(-c4c(C)noc4C)ccc3n2CCN2CCOCC2)cc1 [PF-CBP1]
HCT116 [1]
  efficacy: -94.5%
HCT116 [2]
  AC50 cell viability: 14.8 µM

## O=C(/C=C/c1ccc2ccc(C(F)(F)F)cc2n1)c1ccncc1 [PFK-158]
HCT116 [1]
  efficacy: -89%
HCT116 [2]
  AC50 cell viability: 3.72 µM

## CN1CCN(c2cc(C(=O)Nc3ccc4c(c3)-c3c(c(C(N)=O)nn3-c3ccc(F)cc3)CC4)c(Cl)cn2)CC1 [PHA-408]
HCT116 [1]
  efficacy: -98.2%
HCT116 [2]
  AC50 cell viability: 20.9 µM

## Oc1cccc(-c2nc(N3CCOCC3)c3oc4ncccc4c3n2)c1 [PI-103]
HCT116 [1]
  efficacy: -57.3%
HCT116 [2]
  AC50 cell viability: 1.32 µM

## Fc1ccc2[nH]ccc2c1-c1nc(N2CCOCC2)c2sc(CN3CCN(CC4CC4)CC3)cc2n1 [PI-3065]
HCT116 [1]
  efficacy: -95.1%
HCT116 [2]
  AC50 cell viability: 18.6 µM

## Cc1ccc([N+](=O)[O-])cc1[S+](=O)([O-])N(C)/N=C/c1cnc2ccc(Br)cn12 [PIK-75]
HCT116 [1]
  efficacy: -60.8%
HCT116 [2]
  AC50 cell viability: 0.0525 µM

## COC1=CC=C2/C3=N/CCN3\C(=N/C2=C1OC)NC(=O)C4=CC=CN=C4 [PIK-90]
HCT116 [1]
  efficacy: -37.1%
HCT116 [2]
  AC50 cell viability: 0.263 µM

## CC(=O)Nc1nc(C)c(-c2ccc(Cl)c([S+](=O)([O-])NCCO)c2)s1 [PIK-93]
HCT116 [1]
  efficacy: -85.9%
HCT116 [2]
  AC50 cell viability: 8.33 µM

## C[C@@H](Nc1ncnc2[nH]c(-c3ccc(O)cc3)cc12)c1ccccc1 [PKI-166]
HCT116 [1]
  efficacy: -84.7%
HCT116 [2]
  AC50 cell viability: 14.8 µM

## CCn1nnc2c(N3CCOCC3)nc(-c3ccc(NC(=O)Nc4ccc(C(=O)N5CCN(C)CC5)cc4)cc3)nc21 [PKI-402]
HCT116 [1]
  efficacy: -64.4%
HCT116 [2]
  AC50 cell viability: 0.118 µM

## FC(F)(F)c1ccc(C/N=c2\ccc(Cc3c[nH]c4ncccc34)c[nH]2)cc1 [PLX-647]
HCT116 [1]
  efficacy: -76.1%
HCT116 [2]
  AC50 cell viability: 13.2 µM

## CCC[S+](=O)([O-])Nc1ccc(F)c(C(=O)c2c[nH]c3ncc(Cl)cc23)c1F [PLX-4720]
HCT116 [1]
  efficacy: -38.4%
HCT116 [2]
  AC50 cell viability: 16.6 µM

## CCN(C)[S+](=O)([O-])Nc1ccc(F)c(C(=O)c2c[nH]c3ncc(-c4cnc(C5CC5)nc4)cc23)c1F [PLX-7904]
HCT116 [1]
  efficacy: -69.9%
HCT116 [2]
  AC50 cell viability: 16.6 µM

## O=C(c1c(F)ccc(N[S+](=O)([O-])N2CC[C@@H](F)C2)c1F)c1c[nH]c2ncc(-c3cnc(C4CC4)nc3)cc12 [PLX-8394]
HCT116 [1]
  efficacy: -51.7%
HCT116 [2]
  AC50 cell viability: 13.2 µM

## Nc1ncnc2c1c(-c1cnc3[nH]ccc3c1)nn2C1CCCC1 [PP-121]
HCT116 [1]
  efficacy: -86.5%
HCT116 [2]
  AC50 cell viability: 2.63 µM

## CN[S+](=O)([O-])c1ccc2c(c1)/C(=C/c1[nH]c3c(c1CCCN1CCN(C)CC1)CCCC3)C(=O)N2 [PRP01-012]
HCT116 [1]
  efficacy: -103%
HCT116 [2]
  AC50 cell viability: 14.8 µM

## CCc1ccc(C(=O)Nc2cc(CN3CCN(C)CC3)cc(C(F)(F)F)c2)cc1C#Cc1cnc2ccnn2c1 [PRP003-013]
HCT116 [1]
  efficacy: -100%
HCT116 [2]
  AC50 cell viability: 4.68 µM

## COC(C)(C)CCn1nc(Nc2c(C)cccc2C)c2cnc(Nc3ccc(OCCN4CCCC4)c(F)c3)nc21 [PRP003-032]
HCT116 [1]
  efficacy: -122%
HCT116 [2]
  AC50 cell viability: 14.8 µM

## FC(F)(F)c1ccc(Nc2nc(-c3c(C(F)(F)F)nc4ccccn34)cs2)cc1 [PTC-691]
HCT116 [1]
  efficacy: -73.4%
HCT116 [2]
  AC50 cell viability: 0.332 µM
